The target in test [1] is SnocOBP9WT (Sirex noctilio, UniProt A0A857N3E7). Briefly: Fluorescence competitive binding assay with 1-NPN probe, wild-type protein.
In test [2] the target is SnocOBP9F74A (Sirex noctilio, UniProt A0A857N3E7, F95A). As to the kind of experiment: Fluorescence binding assay with 1-NPN probe, mutant F74A. The source says: (§1) To measure the binding affinity of the ligand to recombinant SnocOBP9, 1-NPN was selected as a fluorescent probe. Eleven host volatiles ((−)-Limonene, (+)-Limonene, 3-Carene, Alpha-Pinene and Beta-Pinene, Camphene, Beta-Myrcene, Beta-Ocimene, Sabinene, Hexanal and Eucalyptol), three insect pheromones ((Z)-3-Decen-ol, (Z)-4-Decen-ol and (E, E)-2,4-decadienal) and six symbiotic fungal volatile (Cyclopentanone, Geraniol 2-Hexene, (−)-Globulol, Linalol and 1-(3-ethylphenyl)ethenone) compounds were selected to bind with recombinant SnocOBP9. A multi-scan Spectrum Molecular Device Spectra Max i3 Fluorescence Spectrophotometer (Thermo Scientific, Wilmington, DE, USA) was used to conduct fluorescence competitive binding assays with an excitation wavelength of 337 nm. The emission spectra were recorded between 390 and 500 nm. The parameters were selected such that the slit widths for both excitation and emission were 10 nm. […] Intensity values corresponding to the maximum fluorescence emission were plotted against the free ligand concentrations to calculate the dissociation constant. Assuming the activity of the protein was 100%, and the stoichiometric ratio between the protein and the ligand was 1:1 when saturated, the bound ligand was determined from the fluorescence intensity value. The K1-NPN value was calculated by linearizing the curve using Scatchard plots. […]
SnocOBP9F74A, sequence (A0A857N3E7 entry or part of it F95A): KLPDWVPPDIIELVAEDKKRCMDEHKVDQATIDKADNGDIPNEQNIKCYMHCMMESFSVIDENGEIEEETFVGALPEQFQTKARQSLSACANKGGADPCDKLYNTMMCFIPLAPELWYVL

In test [3] the target is SnocOBP9F71A (Sirex noctilio, UniProt A0A857N3E7, F92A). Briefly: Fluorescence binding assay with 1-NPN probe, mutant F71A.
SnocOBP9F71A, sequence (A0A857N3E7 entry or part of it F92A): as the sequence (A0A857N3E7 entry or part of it F95A) above, with F71A, A74F counted along it
Text: as §1

The target in test [4] is SnocOBP9L116A (Sirex noctilio, UniProt A0A857N3E7, L137A). As to the kind of experiment: Fluorescence binding assay with 1-NPN probe, mutant L116A.
SnocOBP9L116A, sequence (A0A857N3E7 entry or part of it L137A): as the sequence (A0A857N3E7 entry or part of it F95A) above, with A74F, L116A counted along it
Text: as §1

Test [5] concerns the target SnocOBP9F57A (Sirex noctilio, UniProt A0A857N3E7, F78A). As to the kind of experiment: Fluorescence binding assay with 1-NPN probe, mutant F57A.
Text: as §1

The target of test [6] is SnocOBP9M54A (Sirex noctilio, UniProt A0A857N3E7, M75A). Briefly: Fluorescence binding assay with 1-NPN probe, mutant M54A.
SnocOBP9M54A, sequence (A0A857N3E7 entry or part of it M75A): as the sequence (A0A857N3E7 entry or part of it F95A) above, with M54A, A74F counted along it
Text: as §1

Setting [7] is: protein and 1-NPN both 2 μM, ligand titrated to 1–20 μM, read-out: IC50.

Entries after “also recorded” stand apart in the source; their conditions may differ. Read-outs that look alike come from different tables or passages of the source.

SnocOBP9WT, sequence (A0A857N3E7 entry or part of it): as the sequence (A0A857N3E7 entry or part of it F95A) above, with A74F counted along it
SnocOBP9F57A, sequence (A0A857N3E7 entry or part of it F78A): as the sequence (A0A857N3E7 entry or part of it F95A) above, with F57A, A74F counted along it

The term IC50 denotes the concentration that gives 50% inhibition. For `CCc1cccc(C(C)=O)c1` [1-(3-ethylphenyl)ethenone], the IC50 in test [1] (setting [7]) was greater than 20 µM.

One may read the Kd as the free concentration of one partner at which half of the binding sites on the other are occupied at equilibrium, for simple one-to-one binding. Take `c1ccc(Nc2cccc3ccccc23)cc1` [1-NPN, N-phenyl-1-naphthylamine, reference compound]: the Kd was 6.87 ± 0.73 µM in test [1]; 18.4 ± 1.66 µM in test [2]; 1.27 ± 2.42 µM in test [3]; 17.5 ± 2.41 µM in test [4]; 4.49 ± 0.82 µM in test [5]; 7.61 ± 0.92 µM in test [6].

With `CC=CCCC` [2-Hexene], in test [1] (setting [7]), the IC50 was greater than 20 µM.

For `CC1=CCC2C(C1)C2(C)C` (stereo not shown) [3-Carene], in test [1] (setting [7]), the concentration for half-maximal inhibition (IC50) is greater than 20 µM.

A word on the Ki: it is the dissociation constant of the complex between target and ligand, obtained from inhibition or displacement. For `C=C(C)[C@H]1CC=C(C)CC1` [(+)-Limonene], in test [1], the IC50 was 6.09 ± 1.43 µM and the Ki came to 4.87 ± 0.94 µM.

As for `CCCCC/C=C/C=C/C=O` [(E, E)-2,4-Decadienal], in test [1] (setting [7]), the IC50 is greater than 20 µM.

Regarding `CCCCC/C=C\CCCO` [(Z)-4-Decen-ol], the IC50 in test [1] (setting [7]) is greater than 20 µM.

For `C[C@@H]1CC[C@@H]2[C@@H]1[C@H]1[C@@H](CC[C@@]2(C)O)C1(C)C` [(−)-Globulol], the IC50 in test [1] (setting [7]) is greater than 20 µM.

In test [1], `C=C(C)[C@@H]1CC=C(C)CC1` [(−)-Limonene] gave an IC50 of 6.95 ± 0.61 µM and a Ki of 5.5 ± 0.49 µM.

Consider `CC1=CCC2CC1C2(C)C` (stereo not drawn) [Alpha-Pinene], for which the IC50 in test [1] was greater than 20 µM.

Consider `C=CC(=C)CCC=C(C)C` [Beta-Myrcene], for which, in test [1] (setting [7]), the IC50 is greater than 20 µM.

`C=C/C(C)=C/CC=C(C)C` [Beta-Ocimene]: in test [1] (setting [7]), the IC50 is greater than 20 µM.

In turn, `C=C1CCC2CC1C2(C)C` (stereo not drawn) [Beta-Pinene] returned an IC50 in test [1] greater than 20 µM.

In the case of `C=C1C2CCC(C2)C1(C)C` (stereo not shown) [Camphene], the IC50 in test [1] (setting [7]) is greater than 20 µM.

For the molecule `O=C1CCCC1` [Cyclopentanone], the half-inhibitory concentration (IC50) in test [1] (setting [7]) is greater than 20 µM.

For the molecule `CC12CCC(CC1)C(C)(C)O2` [Eucalyptol], the IC50 in test [1] (setting [7]) was greater than 20 µM.

For the molecule `CC(C)=CCC/C(C)=C/CO` [Geraniol], the IC50 in test [1] was greater than 20 µM.

In test [1], `CCCCCC=O` [Hexanal] showed an IC50 greater than 20 µM.

In turn, `C=CC(C)(O)CCC=C(C)C` (stereo not shown) [Linalool] gave an IC50 in test [1] greater than 20 µM.

On to `C=C1CCC2(C(C)C)CC12` (stereo not shown) [Sabinene], for which the IC50 in test [1] (setting [7]) is greater than 20 µM.

As for `CCCCCC/C=C\CCO` [Z3D, (Z)-3-decen-ol], in test [1] (setting [7]), the IC50 was 1.92 ± 0.14 µM. Further, the inhibition constant Ki in test [1] (protein and 1-NPN both 2 μM, ligand titrated to 1–20 μM, read-out: Ki) was determined as 1.53 ± 0.09 µM; in test [5], 5.61 ± 0.5 µM. Also, the “binding affinity (fluorescence competitive assay)” value in test [2] (mutant PHE74 to ALA, Ki could not be calculated) is on record as “no binding affinity; also recorded: never decreased below 50%”; in test [3] (mutant PHE71 to ALA, Ki could not be calculated), “no binding affinity; also recorded: never decreased below 50%”; in test [4] (mutant LEU116 to ALA, Ki could not be calculated), “no binding affinity; also recorded: never decreased below 50%”; in test [6] (mutant MET54 to ALA, Ki could not be calculated), “no binding affinity; also recorded: never decreased below 50%”.

Values taken from publication PMC9369295, “Key Residues Affecting Binding Affinity of Sirex noctilio Fabricius Odorant-Binding Protein (SnocOBP9) to Aggregation Pheromone” (International Journal of Molecular Sciences, 2022).
